In US6362191B1, “Aminometyl oxooxazolidinyl benzene derivatives” (Zeneca Ltd., priority 1997, dated 2002):
Values after ≈ are worked out from the molar mass of the structure shown.

What was measured:
[1] = test system: Coagulase Negative Staphylococci MR (methicillin resistant); assay: MIC by agar-dilution, in-vitro antibacterial test; format: cell-based; details: type MR (methicillin resistant), 10^4 CFU/spot, 37° C., 24 hours
Procedure: (§1) The following results were obtained on a standard in-vitro test system. The activity is described in terms of the minimum inhibitory concentration (MIC) determined by the agar-dilution technique with an inoculum size of 10^4 CFU/spot.
(§2) Staphylococci were tested on agar, using an inoculum of 10^4 CFU/spot and an incubation temperature of 37° C. for 24 hours—standard test conditions for the expression of methicillin resistance.

[2] = test system: Coagulase Negative Staphylococci MS (methicillin sensitive); assay: MIC by agar-dilution, in-vitro antibacterial test; format: cell-based; details: type MS (methicillin sensitive), 10^4 CFU/spot, 37° C., 24 hours
Procedure: as §1, §2

[3] = test system: Staphylococcus aureus MRQR (methicillin resistant quinoione resistant); assay: MIC by agar-dilution, in-vitro antibacterial test; format: cell-based; details: type MRQR, 10^4 CFU/spot, 37° C., 24 hours
Procedure: as §1, §2

[4] = test system: Staphylococcus aureus Novb. Res. (Novobiocin resistant); assay: MIC by agar-dilution, in-vitro antibacterial test; format: cell-based; details: type Novb. Res. (Novobiocin resistant), 10^4 CFU/spot, 37° C., 24 hours
Procedure: as §1, §2

[5] = test system: Staphylococcus aureus Oxford; assay: MIC by agar-dilution, in-vitro antibacterial test; format: cell-based; details: type Oxford, 10^4 CFU/spot, 37° C., 24 hours
Procedure: as §1, §2

Enterococcus faecalis = assay: MIC by agar-dilution, in-vitro antibacterial test; format: cell-based; details: agar with 5% defibrinated horse blood, 10^4 CFU/spot, 37° C., 5% carbon dioxide, 48 hours
Procedure: (§3) The following results were obtained on a standard in-vitro test system. The activity is described in terms of the minimum inhibitory concentration (MIC) determined by the agar-dilution technique with an inoculum size of 10^4 CFU/spot. Streptococci and enterococci were tested on agar supplemented with 5% defibrinated horse blood, an inoculum of 10^4 CFU/spot and an incubation temperature of 37° C. in an atmosphere of 5% carbon dioxide for 48 hours—blood is required for the growth of some of the test organisms.

[6] = test system: Streptococcus pyogenes C203; assay: MIC by agar-dilution, in-vitro antibacterial test; format: cell-based; details: agar with 5% defibrinated horse blood, 10^4 CFU/spot, 37° C., 5% carbon dioxide, 48 hours
Procedure: as §3

Bacillus subtilis = assay: MIC by agar-dilution, in-vitro antibacterial test; format: cell-based; details: 10^4 CFU/spot
From the text: as §1

melting point | SMILES | other results
234 to 235 °C | CC(=O)NC[C@H]1CN(c2ccc(C(=O)c3cnc4ccc(Cl)cn34)cc2)C(=O)O1 [Example 14, N-([(5S)-N-(4-[6-chloroimidazo[1,2-a]pyridin-3-ylcarbonyl]phenyl)-2-oxooxazolidin-5-yl]methyl)acetamide] | –
223 to 225 °C | CC(=O)NC[C@H]1CN(c2ccc(C(=O)c3cnc4ccc([N+](=O)[O-])cn34)cc2)C(=O)O1 [Example 15, N-([(5S)-N-(4-[6-nitroimidazo[1,2-a]pyridin-3-ylcarbonyl]phenyl)-2-oxooxazolidin-5-yl]methyl)acetamide] | –
229 to 230 °C | CC(=O)NC[C@H]1CN(c2ccc(C(=O)c3cnc4c([N+](=O)[O-])cccn34)cc2)C(=O)O1 [Example 16, N-([(5S)-N-(4-[8-nitroimidazo[1,2-a]pyridin-3-ylcarbonyl]phenyl)-2-oxooxazolidin-5-yl]methyl)acetamide] | –
221 to 223 °C | CC(=O)NC[C@H]1CN(c2ccc(C(=O)c3cnc4c(Br)cc(C)cn34)cc2)C(=O)O1 [Example 19, N-([(5S)-N-(4-[8-bromo-6-methylimidazo[1,2-a]pyridin-3-ylcarbonyl]phenyl)2-oxooxazolidin-5-yl]methyl)acetamide] | –
193 to 195 °C | CC(=O)NC[C@H]1CN(c2ccc(C(=O)c3cnc4c(OCc5ccccc5)cccn34)cc2)C(=O)O1 [Example 20, N-([(5S)-N-(4-[8-benzyloxyimidazo[1,2-a]pyridin-3-ylcarbonyl]phenyl)-2-oxooxazolidin-5-yl]methyl)acetamide] | –
196 to 198 °C | CC(=O)NC[C@H]1CN(c2ccc(C(=O)c3cnc4ccccn34)c(F)c2)C(=O)O1 [Example 22, N-([(5S)-N-(4[imidazo[1,2-a]pyridin-3-ylcarbonyl]{3-fluorophenyl})-2-oxooxazolidin-5-yl]methyl)acetamide] | –
202 to 204 °C | COC(=O)c1cccn2c(C(=O)c3ccc(N4C[C@H](CNC(C)=O)OC4=O)cc3)cnc12 [Example 23, N-([(5S)-N-(4-[8-methoxycarbonylimidazo[1,2-a]pyridin-3-ylcarbonyl]phenyl)-2-oxooxazolidin-5-yl]methyl)acetamide] | –
231 to 233 °C | COC(=O)c1ccc2ncc(C(=O)c3ccc(N4C[C@H](CNC(C)=O)OC4=O)cc3)n2c1 [Example 24, N-([(5S)-N-(4-[6-methoxycarbonylimidazo[1,2-a]pyridin-3-ylcarbonyl]phenyl)-2-oxooxazolidin-5-yl]methyl)acetamide] | –
256 to 258 °C | CC(=O)NC[C@H]1CN(c2ccc(C(=O)c3cnc4cc(-c5ccccc5)ccn34)cc2)C(=O)O1 [Example 25, N-([(5S)-N-(4-[7-phenylimidazo[1,2-a]pyridin-3-ylcarbonyl]phenyl)-2-oxooxazolidin-5-yl]methyl)acetamide] | –
253 to 255 °C (dec.) | CC(=O)NC[C@H]1CN(c2ccc(C(=O)c3cnc4c(O)cccn34)cc2)C(=O)O1 [Example 26, N-([(5S)-N-(4-[8-hydroxyimidazo[1,2-a]pyridin-3-ylcarbonyl]phenyl)-2-oxooxazolidin-5-yl]methyl)acetamide] | –
224 to 226 °C | CC(=O)NC[C@H]1CN(c2ccc(C(=O)c3cnc4ccc(F)cn34)cc2)C(=O)O1 [Example 27, N-([(5S)-N-(4-[6-fluoroimidazo[1,2-a]pyridin-3-ylcarbonyl]phenyl)-2-oxooxazolidin-5-yl]methyl)acetamide] | –
216 to 220 °C | CC(=O)NC[C@H]1CN(c2ccc(C(=O)c3cnc4cnc(Br)cn34)cc2)C(=O)O1 [Example 43, N-([(5S)-N-(4-[6-bromoimidazo[1,2-a]pyrazin-3-ylcarbonyl]phenyl)-2-oxooxazolidin-5-yl]methyl)acetamide] | –
194 to 196 °C | CC(=O)NC[C@H]1CN(c2ccc(C(=O)c3cnc4ccc(Cl)nn34)cc2)C(=O)O1 [Example 44, N-([(5S)-N-(4-[6-chloroimidazo[1,2-b]pyridazin-3-ylcarbonyl]phenyl)-2-oxooxazolidin-5-yl]methyl)acetamide] | –
254 to 256 °C | CC(=O)NC[C@H]1CN(c2ccc(C(=O)c3cnc4cnccn34)cc2)C(=O)O1 [Example 45, N-([(5S)-N-(4-[imidazo[1,2-a]pyrazin-3-ylcarbonyl]phenyl)-2-oxooxazolidin-5-yl]methyl)acetamide] | –
202 to 205 °C | CC(=O)NC[C@H]1CN(c2ccc(C(=O)c3ccc[nH]3)cc2)C(=O)O1 [Example 47, N-([(5S)-N-(4-[pyrrol-2-ylcarbonyl]phenyl)-2-oxooxazolidin-5-yl]methyl)acetamide] | –

The next lines start with the compound.

SMILES | melting point | other results
CC(=O)NC[C@H]1CN(c2ccc(C(=O)c3ccc4ccc(C)cn34)cc2)C(=O)O1 [Example 2, N-([(5S)-N-(4-[6-methylindolizin-3-ylcarbonyl]phenyl)-2-oxooxazolidin-5-yl]methyl)acetamide] | 237 to 239 °C | –
CC(=O)NC[C@H]1CN(c2ccc(C(=O)c3ccc4cnc(C)cn34)cc2)C(=O)O1 [Example 4, N-([(5S)-N-(4-[3-methylpyrrolo[1,2-a]pyrazin-6-ylcarbonyl]phenyl)-2-oxooxazolidin-5-yl]methyl)acetamide] | 248 to 250 °C | –
CC(=O)NC[C@H]1CN(c2ccc(C(=O)c3cnc4ccccn34)cc2)C(=O)O1 [Example 5, N-([(5S)-N-(4-[imidazo[1,2-a]pyridin-3-ylcarbonyl]phenyl)-2-oxooxazolidin-5-yl]methyl)acetamide] | 218 to 220 °C | –
CC(=O)NC[C@H]1CN(c2ccc(C(=O)c3cnc4ncccn34)cc2)C(=O)O1 [Example 6, N-([(5S)-N-(4-[imidazo[1,2-a]pyrimidin-3-ylcarbonyl]phenyl)-2-oxooxazolidin-5-yl]methyl)acetamide] | 257 to 260 °C | –
CC(=O)NC[C@H]1CN(c2ccc(C(=O)c3cnc4nc(C)cc(C)n34)cc2)C(=O)O1 [Example 7, N-([(5S)-N-(4-[5,7-dimethylimidazo[1,2-a]pyrimidin-3-ylcarbonyl]phenyl)-2-oxooxazolidin-5-yl]methyl)acetamide] | 253 to 254 °C | –
CC(=O)NC[C@H]1CN(c2ccc(C(=O)c3cnc4ccc(Br)cn34)cc2)C(=O)O1 [Example 8, N-([(5S)-N-(4-[6-bromoimidazo[1,2-a]pyridin-3-ylcarbonyl]phenyl)-2-oxooxazolidin-5-yl]methyl)acetamide] | 230 to 232 °C | –
CC(=O)NC[C@H]1CN(c2ccc(C(=O)c3cnc4c5ccccc5ccn34)cc2)C(=O)O1 [Example 9, N-([(5S)-N-(4-[imidazo[2,1-a]isoquinol-3-ylcarbonyl]phenyl)-2-oxooxazolidin-5-yl]methyl)acetamide] | 239 to 240 °C | –
CC(=O)NC[C@H]1CN(c2ccc(C(=O)c3cnc4sccn34)cc2)C(=O)O1 [Example 10, N-([(5S)-N-(4[imidazo[2,1-b]thiazol-5-ylcarbonyl]phenyl)-2-oxooxazolidin-5-yl]methyl)acetamide] | – | MIC [1]: 0.13 µg/mL (≈ 0.338 µM); MIC [2]: 0.06 µg/mL (≈ 0.156 µM); MIC [3]: 0.5 µg/mL (≈ 1.3 µM); MIC [4]: 0.13 µg/mL (≈ 0.338 µM); MIC [5]: 0.13 µg/mL (≈ 0.338 µM); MIC (Enterococcus faecalis): 0.25 µg/mL (≈ 0.65 µM); MIC [6]: 0.03 µg/mL (≈ 0.078 µM); MIC (Bacillus subtilis): 0.125 µg/mL (≈ 0.325 µM)
CC(=O)NC[C@H]1CN(c2ccc(C(=O)c3cnc4c(Cl)cc(Cl)cn34)cc2)C(=O)O1 [Example 11, N-([(5S)-N-(4-[6,8-dichloroimidazo[1,2-a]pyridin-3-ylcarbonyl]phenyl)-2-oxooxazolidin-5-yl]methyl)acetamide] | 228 to 229 °C | –
CC(=O)NC[C@H]1CN(c2ccc(C(=O)c3cc(C#N)c4ccccn34)cc2)C(=O)O1 [Example 12, N-([(5S)-N-(4-[1-cyanoindolizin-3-ylcarbonyl]phenyl)-2oxooxazolidin-5-yl]methyl)acetamide] | 255 to 257 °C | –
CC(=O)NC[C@H]1CN(c2ccc(C(=O)c3cnc4cc(C)ccn34)cc2)C(=O)O1 [Example 13, N-([(5S)-N-(4-[7-methylimidazo[1,2-a]pyridin-3-ylcarbonyl]phenyl)-2-oxooxazolidin-5-yl]methyl)acetamide] | 254 to 256 °C | –
